Assay results taken from patent publication US10493131B2, “Materials and methods for modulating activity of bone marrow derived cells” (University of Florida Research Foundation, Incorporated, priority 2011, dated 2019).

Assays:
CD34+ BMDEC [1] = test: SDF-1/Relaxin induced chemotaxis (Boyden chamber); type: cell-based, human; details: 10 μM L-NAME
Procedure: Isolation of CD34+ BMDEC. The study protocol was approved by the Institutional Review Board of the University of Florida, and written informed consent was obtained from each subject. Blood was collected from healthy controls by routine venipuncture into CPT™ Tubes with heparin (BD Biosciences, Franklin Lakes, N.J.), centrifuged at room temperature in a swinging bucket rotor for 20 minutes at 1800 RCF, the peripheral blood mononuclear cells (PBMCs) diluted with phosphate buffered saline supplemented with 2 mM EDTA (PBSE) and centrifuged for 10 minutes at 300 RCF. After washing the cell pellet, centrifugation was repeated. 3.3×10^7 PBMCs were resuspended in 100 μl of PBSE to which 33 μl of FcR blocking reagent (Miltenyi Biotec Inc., Auburn, Calif.) and 33 μl of magnetic microbeads conjugated with an anti-CD34 antibody was added. After incubation for 30 minutes at 4° C., the cells were diluted in 10× the volume of PBSE supplemented with 0.1% bovine serum albumin. The CD34+ BMDEC were positively selected using an automated magnetic selection autoMACS™ (Miltenyi Biotec Inc., Auburn, Calif.). […] After 4.5 hours at 5% CO2 at 37° C., the percentage of cells that migrated was determined by collecting the media in the lower chamber and determining the relative fluorescence using a Synergy™ HT (Bio-Tek Instruments, Inc., Winooski, Vt.) with an excitation of 485±20 and an emission of 528±20 nm. […]

CD34+ BMDEC [2] = test: Detection of nitric oxide (NO) produced by cells (DAF-FM fluorescence); type: cell-based, human; details: pretreatment with MK2206 20 nM 30 minutes; 50 ng/ml rhRLX
Procedure: Isolation of CD34+ BMDEC. The study protocol was approved by the Institutional Review Board of the University of Florida, and written informed consent was obtained from each subject. Blood was collected from healthy controls by routine venipuncture into CPT™ Tubes with heparin (BD Biosciences, Franklin Lakes, N.J.), centrifuged at room temperature in a swinging bucket rotor for 20 minutes at 1800 RCF, the peripheral blood mononuclear cells (PBMCs) diluted with phosphate buffered saline supplemented with 2 mM EDTA (PBSE) and centrifuged for 10 minutes at 300 RCF. After washing the cell pellet, centrifugation was repeated. […]
Detection of Nitric Oxide (NO) produced by cells. […] Bioavailable NO was determined as previously described (Shah, R., Beem, E., Sautina, L., Zharikov, S. I., and Segal, M. S. 2007. Mitomycin- and calcineurin-associated HUS, endothelial dysfunction and endothelial repair: a new paradigm for the puzzle? Nephrol Dial Transplant 22:617-620). […] DAF-FM fluorescence increases by about 160-fold when it reacts with NO. Green fluorescence was measured using the inverted fluorescent Carl Zeiss Axiovert 200M microscope equipped with a CCD camera and Slidebook software (v.4.1; Intelligent Imaging Innovations, Inc. Denver, Colo.). Fluorescence intensity was measured in 20-30 cells per field in at least 6 fields per well. […]

| Compound | effect on basal level of migration (CD34+ BMDEC [1]) | effect on relaxin-stimulated chemotaxis (CD34+ BMDEC [1]; 50 ng/ml rhRLX) | effect on rhRLX stimulation of NO (CD34+ BMDEC [2]) |
| --- | --- | --- | --- |
| COC(=O)[C@@H](N)CCCNC(=N)N[N+](=O)[O-] [L-NAME, L—N^G-nitroarginine methy ester] | unaffected | blocked | – |
| NC1(c2ccc(-c3nc4ccn5c(=O)[nH]nc5c4cc3-c3ccccc3)cc2)CCC1 [MK2206] | – | – | prevented |
